Assay results taken from patent US8772243B2, “Methods for predicting the response to anti-cancer treatment with an agonist of TLR7 or an agonist of TLR8” (Inserm (Institut National de la Sante et de la Recherche …, priority 2008, dated 2014).

Legend:
[1] = test system: A549 cells; assay: Tumor cell proliferation assay (Alamar blue reduction); assay type: cell-based, human; conditions: 10 μg/ml, ten days
Procedure: (§1) FIG. 4 TLR7 and 8 induce survival of lung tumor cells. (A) A549 cells were unstimulated, stimulated with loxoribine (10 μg/ml), Poly U (10 μg/ml), or Gardiquimod(10μg/ml) and incubated with Alamar blue for 10 days. Reduction of Alamar blue was then determined by spectrophotometry at 570 and 600 nm. The percentage of reduced Alamar blue was calculated as described by the manufacturer. A549 cells were unstimulated or stimulated with loxoribine, Poly U, Gardiquimod, etoposide, or cycloheximide for 24 h. (B) The percentage of dead cells was determined by Trypan blue exclusion. (C) The DNA content was measured by IP staining after RNAse A treatment. The percentages indicate the proportion of subdiploid (G0/G1) and […]. Data represent mean values±SD from 3 independent experiments (*p<0.05; ** p<0.01, Student test). (D) A549 cells were cultured for 6 h in the presence of loxoribine, Poly U, or Gardiquimod, and the expression of Bcl-2 was assayed using Taq Man Low Density Array technology. The ΔCT values for Bcl-2 expression were calculated by subtraction of the CT value obtained for the 18S housekeeping gene. The ΔΔCT values were obtained by subtraction of ΔCT values for unstimulated cells from those obtained for stimulated cells. The fold increase (arbitrary unit) was obtained by 2^−ΔΔCT.
Human lung cancer cell lines were seeded in 96-well plates (800 cells per well) and left unstimulated or were stimulated with loxoribine, Poly U, or Gardiquimod. The proliferation assay was performed with Alamar blue (AbD Serotec, Cergy Pontoise, France) according to the manufacturer's instructions. Briefly, cells were seeded and stimulated with TLR ligands in 100 μl of medium, and 10 μl of Alamar Blue was added. The optical density in each well was determined at 540 nm and 570 nm after 10 days of culture, and the percentage of reduced Alamar blue was determined. The percentage of reduced Alamar blue in unstimulated cells was determined as 100%, and the percentages of the stimulated cells were determined relative to this value.

[2] = test system: A549 cells; assay: Cell cycle analysis (propidium iodide staining); assay type: cell-based, human; conditions: PI staining
Procedure: as §1
A549 cells were cultured in the presence of loxoribine, Poly U, Gardiquimod, etoposide, or cycloheximide. After 48 h, the cells were harvested, washed in cold PBS, and fixed with 2 ml of 70% cold ethanol in PBS for 2 h at 4° C. After centrifugation, the supernatant was removed and the pellet was rinsed with 0.5% PBS Tween. It was then incubated with […] of RNAse A and 50 μg of propidium iodide in PBS. Propidium iodide staining was determined with a FACScalibur cytometer.

[3] = test system: Bcl-2 expression in A549 cells; assay: Bcl-2 expression, Taq Man Low Density Array, A549; assay type: cell-based, human; conditions: 6 h, RT-PCR
Procedure: as §1, with “The fold increase (arbitrary unit) was obtained by 2^−ΔΔCT.” left out
Total RNA was extracted from A549 or SK-MES cells stimulated with loxoribine, Poly U, or Gardiquimod for 6 h or from purified human lung cancer cells using the RNeasy isolation-kit RNA (Qiagen, Courtaboeuf, France). The integrity and the quantity of the RNA were evaluated with a bioanalyzer-2100 (Agilent Technologies). All samples were assessed for gene expression analysis using the Taq Man Low-Density Array angiogenesis and immune panel (Applied Biosystem). […] Quantitative real-time TaqMan-PCR was performed using Low-Density-Arrays and the 7900 robotic real-time PCR-system (Applied-Biosystems). […] Data were analyzed using the SDS Software v2.2 (Applied-Biosystems). The ΔCT values were calculated for each gene by subtraction of the CT value of the 18S housekeeping gene from the CT of the gene of interest. […]

[4] = test system: Bcl-2 expression in SCC SK-MES cells; assay: Bcl-2 expression, SK-MES; assay type: cell-based, human; conditions: data not shown
Procedure: (§2) Total RNA was extracted from A549 or SK-MES cells stimulated with loxoribine, Poly U, or Gardiquimod for 6 h or from purified human lung cancer cells using the RNeasy isolation-kit RNA (Qiagen, Courtaboeuf, France). The integrity and the quantity of the RNA were evaluated with a bioanalyzer-2100 (Agilent Technologies). All samples were assessed for gene expression analysis using the Taq Man Low-Density Array angiogenesis and immune panel (Applied Biosystem). The RT-PCR experiments were carried-out according to the manufacturer's instructions (Applied-Biosystems). Quantitative real-time TaqMan-PCR was performed using Low-Density-Arrays and the 7900 robotic real-time PCR-system (Applied-Biosystems). The 18S primers and probes were used as internal controls. Data were analyzed using the SDS Software v2.2 (Applied-Biosystems). The ΔCT values were calculated for each gene by subtraction of the CT value of the 18S housekeeping gene from the CT of the gene of interest. The ΔΔCT values were obtained by subtraction of the ΔCT values for unstimulated cells from the […]. The fold increase (arbitrary unit) was obtained by 2^−ΔΔCT.

[5] = test system: A549 and SK-MES cells; assay: Transcriptomic analysis of 182 genes (Taq Man Low Density Array); assay type: cell-based, human; conditions: 6 h stimulation; versus unstimulated cells
Procedure: FIG. 6 TLR7 and 8 induce regulation of gene transcription. A549 or SK-MES cells were cultured for 6 h in the presence of loxoribine, Poly U, or Gardiquimod. Total RNA was extracted and analyzed for the expression of 182 genes using Taq Man Low Density Array technology. All genes with a value greater than 35 (CT) were excluded from the analysis. The ΔCT values for the expression of all genes were calculated by subtraction of the CT value of the 18S housekeeping gene. The ΔΔCT values were obtained by subtraction of the ΔCT values for unstimulated cells from those obtained for TLR7- or 8-stimulated cells. The fold increase (arbitrary unit) was obtained by 2^−ΔΔCT. Values were then clustered using the Genesis Software.
as §2

[6] = test system: 1549, H1355 and SK-MES cells; assay: Chemoresistance by colony formation assay; assay type: cell-based, human; conditions: concentration added on day 12 of colony formation assay
Procedure: Alternatively, chemoresistance was assessed by the colony formation assay. In this assay, 1549, H1355 and SK-MES cells were seeded in 6-well plates (500 cells per well) and incubated for 15 days at 37° under 5% CO2. The cells were left unstimulated or stimulated 100 μM Loxoribine or with 10 μg/ml single-stranded polyU RNA (InvivoGen) on days 0, 3, 6 and 9. On day 12, different anti-cancer agents were added at the respective LD50 (cisplatin and carboplatin 100 μM, navelbine 50 μM, doxorubicine 2 nM). On day 15, the wells ware washed with PBS, and stained with 6% (vol/vol) glutaraldehyde, 0.5% (wt/vol) crystal violet in water for 30 minutes. The cells were washed and the colonies of more than 50 cells counted. Cell survival was calculated as follows: number of colonies after chemotherapy/number of cells seeded on day 0×plating efficiency, where the plating efficiency is number of colonies/number of cells seeded.

[7] = test system: A549 and SK-MES cells; assay: Chemoresistance assay (Trypan blue and Alamar blue); assay type: cell-based, human; conditions: Alamar blue reduction
Procedure: FIG. 5 TLR7 and 8 induce chemoresistance of lung tumor cells. A549 (A-C) or SK-MES cells (D-F) were cultured with or without loxoribine or Poly U for 48 h, and then left untreated or were treated with cycloheximide, cisplatine, carboplatine, doxorubicine, or Navelbine. After 36 h, the percentage of dead cells was determined by Trypan blue exclusion (A, D) and cell viability was analyzed by the reduction of Alamar blue (B, C, E and F). Data represent mean values±SD from 3 independent experiments (*p<0.05; **p<0.01, ***p<0.001, Student test).
A549 and SK-MES cells were seeded in 96-well plates (1000 cells per well) and left unstimulated or were stimulated with loxoribine, Poly U, or Gardiquimod for 48 h. Cisplatine, carboplatine, doxorubicine, Navelbine, or cycloheximide was then added for an additional 36 h. The optical density in each well was determined 24 h after the addition of Alamar blue at 540 nm and 570 nm. Alternatively, viable and dead cells were counted using Trypan blue.

[8] = test system: A549 cells; assay: A549 xenograft in NOD/SCID mice; assay type: in vivo; conditions: for factor of reduction of tumor size by chemotherapy: cisplatine 2 mg/kg/injection i.p.
Procedure: Mice were anesthetized by intra-peritoneal injection of a solution containing 3.2 mg of ketamine (Virbac) and 0.16 mg of xylasine (Rompum 2%, Bayer Healthcare) in 80 μl of PBS (Gibco). Five days prior to experimentation, A549 cells were pre-stimulated with 100 μM Loxoribine (Invivogen) or left unstimulated. For each condition 5×10^6 cells were diluted in 250 μl PBS and injected subcutaneously to 5 mice per group and were re-stimulated either with 50 μl PBS or with 100 nmol of Loxoribine diluted in 50 μl PBS. Stimulating injections into the tumor site were carried out on the day the cells were injected and then on days 3, 6 and 9. The mice then received either 120 μA PBS, or a chemotherapy of cisplatine (2 mg/kg/injection diluted in 120 μl PBS) on days 18, 20 and 22, both intra-peritoneal. The volume of the tumor was determined by measuring the length (Lg), the width (Wi) of the tumor and by calculating (Lg*(Wi*Wi)/2.

[9] = test system: A549 cells; assay: Percentage of dead cells by Trypan blue exclusion; assay type: cell-based, human; conditions: 24 h
Procedure: as §1

[10] = test system: IκBα (NF-κB activation) in A549 cells; assay: Western blot of IκBα phosphorylation and degradation (NF-κB activation) in A549 cells; assay type: cell-based, human; conditions: TNF-α 10 ng/ml
Procedure: FIG. 3 TLR7 and TLR8 lead to IκBα phosphorylation, but not degradation. A549 cells were untreated or treated with TNF-α (10 ng/ml) (A, B), loxoribine (10 μg/ml) (C, D), or Poly U (10 μg/ml) (E, F) for the indicated periods of time. The cell lysates were analyzed by immunoblot with anti-phospho-specific IκBα, anti-IκBα and anti-actin antibodies (A, C, E). Quantification of the bands was realized using Image J software (B, D, F). Histograms represent the intensity of each band observed in the blots at the indicated time point and are expressed in arbitrary units normalized to actin intensity (relative intensity) both for phospho-IκBα and IκBα. Results are representative of three independent experiments.
A549 cells (1.10^6 cells) were starved for 4 hours in medium containing 2% FCS, and then stimulated with loxoribine, PolyU, or TNFα (10 ng/ml) for different periods of time as indicated. Cells were lysed in 50 mM Tris-HCl, pH 7.5, 150 mM NaCl, 2 mM EDTA, 0.5% triton X100, 2 mM Na3VO4, 10 mM NaF, and 10 mM sodium pyrophosphate supplemented with a complete protease inhibitor cocktail (Boehringer, Paris, France). Protein contents in the cell lysates were quantified using the quick start Bradford protein assay kit (Biorad, Marnes-La-Coquette, France) to ensure that all samples contained similar amounts of protein. Proteins (30 μg) were resolved in 10% Tris-glycine polyacrylamide gels (Invitrogen, Cergy Pontoise, France) and transferred to PVDF immobilon-P membranes (Millipore, Molsheim, France). Blots were probed with monoclonal antibody against phospho-IκBα (Cell Signaling Technology, Danvers, USA), total IκBα, and actin (Santa Cruz, Le Perray en Yvelines, France).
In order to determine if the TLR7 and 8 expressed by lung tumor cell lines were able to induce intracellular signaling pathways, we studied NF-κB activation in response to stimulation with TNFα, loxoribine (homodimeric TLR7 ligand), or Poly U (homodimeric TLR8 ligand). […] In contrast TLR7 or 8 stimulation led to atypical NF-κB activation. […] Furthermore, we also observed that the kinetics of IκBα phosphorylation were dependent on the stimulus. On the one hand, TNFα stimulation induced two waves of IκBα phosphorylation; the first one after ten minutes was associated with IκBα degradation, and the second one after sixty minutes was not associated with IκBα degradation. On the other hand, we observed that TLR stimulation induced only a phosphorylation of IκBα, with a maximum phosphorylation obtained after thirty minutes without degradation of IκBα.

CCNCc1nc2c(N)nc3ccccc3c2n1CC(C)(C)O [Gardiquimod]
increase in reduction of Alamar blue versus unstimulated cells [1]: 20%
proportion of cells in G0/G1 or G2/M phases versus unstimulated cells [2]: did not observe any significant differences
Bcl-2 expression compared to untreated cells [3]: increased expression of Bcl-2
increase in Bcl-2 expression [4]: 100 fold
genes down-regulated in both SK-MES and A549 cells [5]: Prolactin (PRL), CD80, Fibronectin-1 (FN-1), A Disintegrin And Metalloproteinase with ThromboSpondin motif 1 (ADAMTS1), and Serpin Peptidase Inhibitor Clade C1 (SERPINC1)
genes up-regulated in A549 cells, but down-regulated in SK-MES cells [5]: Angiopoietin like 3 (ANGPTL3), Serpin Peptidase Inhibitor Clade F1 (SERPINF1), and Angiopoietin 1 (ANGPT1)
genes up-regulated in SK-MES, but down-regulated in A549 cells [5]: ANGPTL1, Platelet Factor 4 (PF4), and fms related tyrosine kinase 4 (FLT4)
genes up-regulated in both SK-MES and A549 cells [5]: Bcl-2, CCR4, and Vasohibin-1 (VASH-1)

CCC1=C[C@@H]2CN(C1)Cc1c([nH]c3ccccc13)[C@@](C(=O)OC)(c1cc3c(cc1OC)N(C)[C@H]1[C@@](O)(C(=O)OC)[C@H](OC(C)=O)[C@]4(CC)C=CCN5CC[C@]31[C@@H]54)C2 [Navelbine]
LD50 [6]: 50 µM

[NH2][Pt]1([NH2])[O]C(=O)C2(CCC2)C(=O)[O]1 [carboplatine]
reduction in cell viability by chemotherapy, comparison of drugs [7]: more potent inducers of cell death
LD50 [6]: 100 µM

[NH2][Pt]([NH2])([Cl])[Cl] [cisplatine]
reduction in cell viability by chemotherapy, comparison of drugs [7]: more potent inducers of cell death
LD50 [6]: 100 µM
factor of reduction of tumor size by chemotherapy ([8]; Loxoribine-stimulated group): 1.6 factor
factor of reduction of tumor size by chemotherapy ([8]; NS group): 3 factor
tumor volume seven weeks after injection of tumor cells ([8]; NS group, cisplatine 2 mg/kg/injection i.p. days 18, 20, 22): 0.6 cm^3

C[C@@H]1C[C@@H]([C@H](O)CC2CC(=O)NC(=O)C2)C(=O)[C@@H](C)C1 [cycloheximide]
increase in the percentage of dead cells (positive controls) [9]: 2.5 fold
proportion of cells in G0/G1 or G2/M phases versus unstimulated cells [2]: significant reduction in the percentage of cells in G0/G1 or G2/M

COc1cccc2c1C(=O)c1c(O)c3c(c(O)c1C2=O)C[C@@](O)(C(=O)CO)C[C@@H]3O[C@H]1C[C@H](N)[C@H](O)[C@H](C)O1 [doxorubicine]
LD50 [6]: 0.002 µM

COc1cc([C@@H]2c3cc4c(cc3[C@@H](O[C@@H]3O[C@@H]5CO[C@@H](C)O[C@H]5[C@H](O)[C@H]3O)[C@H]3COC(=O)[C@H]23)OCO4)cc(OC)c1O [etoposide]
increase in the percentage of dead cells (positive controls) [9]: 2.5 fold
proportion of cells in G0/G1 or G2/M phases versus unstimulated cells [2]: significant reduction in the percentage of cells in G0/G1 or G2/M

TNFα
first wave of IκBα phosphorylation, associated with IκBα degradation [10]: ten
second wave of IκBα phosphorylation, not associated with IκBα degradation [10]: sixty
IκBα degradation / type of NF-κB activation ([10]; loxoribine or Poly U 10 μg/ml): IκBα phosphorylation and degradation
